Publication PMC5538713, “RORγt and RORα signature genes in human Th17 cells” (PLoS ONE, 2017)

Assays:
GAL2 (h) = target: T1, GAL2 (h) (Homo sapiens, UniProt O43603); test: Cerep selectivity panel; type: binding
T1 construct: purchased Cerep
How it was run: (§1)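 Off-target profiling within a commercial panel of 50 receptors, ion channels and transporters; each compound was tested at 1 µM and 10 µM.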

human RORγt LBD = target: T2, human RORγt LBD (Homo sapiens, UniProt P51449); test: RORγt cellular reporter assay (GAL4-RORγt LBD luciferase, HEK293T); type: cell-based; conditions: 24 hours, read-out: RORγ/γt Cellular Reporter Assay (IC50)
T2 construct: expressed in transfected cells; host or cells: HEK293T
Protocol: Media was removed and cells were lysed with 50 μL 1x Glo Lysis Buffer (Promega). […] To calculate the effect of compounds on RORγt activity, the ratio of firefly to renilla luciferase was determined and plotted against compound concentration. Agonist compounds increase RORγt-driven luciferase expression, and antagonist or inverse agonist compounds decrease luciferase expression. IC50 values were determined using Graphpad Prism.

RORγ/γt LBD = target: T3, RORγ/γt LBD (Homo sapiens, UniProt P51449); test: ThermoFluor binding assay, RORγ/γt LBD; conditions: recombinant human LBD; read-out: ThermoFlour Binding Assay (Kd, nM) RORγ/γt
T3 construct: made in house; host or cells: E. coli BL21DE3 GOLD, pET24a
Protocol: Recombinant human RORγ, RORα and RORβ LBD proteins were prepared for ThermoFlour binding assay. […] All recombinant proteins contained an additional amino acid sequence of [sequence] at the N-terminal of LBD. After transformation of the bacteria strain BL21DE3 GOLD (Agilent) with the plasmids, 10 to 20 L cultures were grown to 1 OD and recombinant protein expression was induced overnight at 16°C with 0.2mM isopropyl-beta-D-thiogalactopyranoside (IPTG) (Corning). […] His-tagged proteins were collected with Ni-NTA resin (Qiagen) and purified with a HiTrap Q HP column (GE Life Sciences) eluted with a 40 CV gradient of 50-500mM NaCl.
The ThermoFluor® assay was established to measure the change in protein stability upon binding with compounds. 1-Anilinonaphthalene-8-Sulfonic Acid (1,8-ANS) (Invitrogen) was used as a fluorescent dye to label the test proteins. […] Assay plates were robotically loaded onto a thermostatically controlled PCR-type thermal block and then heated at a ramp-rate of 1°C/min. Fluorescence emission was initiated by continuous illumination with UV light (LC6, Hamamatsu) via fiber optic with a band-pass filter (380–400 nm) and detected with a CCD camera (Sensys, Roper Scientific) filtered to detect signal of 500 ± 25 nm. […]

Aa1 = test: Cerep selectivity panel; type: binding
5HT1A (h) = target: T4, 5HT1A (h) (Homo sapiens, UniProt P08908); test: Cerep selectivity panel; type: binding
T4 construct: purchased Cerep
How it was run: as §1

Aa2 = test: Cerep selectivity panel; type: binding
RORγt transcripts = test: RT-PCR of RORγt transcripts in human CD4 T cells during Th17 differentiation; type: cell-based; conditions: 0.1 and 0.5 μM, throughout the time course (2 hours to 6 days)
Protocol: Human CD4 T cells from 2 healthy donors were used in studies. 5.0 × 10^6 human CD4 T cells were used per sample and cell samples were collected at 0, 24 and 48 hours of Th17 differentiation for gene expression studies with RNA-Seq and RT-PCR.
Expression of RORα, RORγt and IL-17A genes in siRNA or compound treated human Th17 cells was measured by quantitative RT-PCR using the TaqMan RNA-to-Ct 1 step kit (Applied Biosystems) following the manufacturer’s instructions. […] Real time PCR was performed using 600ng total RNA as template in the ABI PRISM 7500 Sequence Detection System (Applied Biosystems), with reaction starting at 48°C for 15 minutes, then 10 minutes at 95°C, followed by 40 cycles of 15 seconds at 95°C and 1 minute at 60°C.
PCR results were analyzed with the ddCT algorithm [34] to generate data on relative quantitation and changes in gene expression.

CCKA (h) = target: T5, CCKA (h) (Homo sapiens, UniProt P32238); test: Cerep selectivity panel; type: binding
T5 construct: purchased Cerep
How it was run: as §1

H2 (h) = target: T6, H2 (h) (Homo sapiens, UniProt P25021); test: Cerep selectivity panel; type: binding
T6 construct: purchased Cerep
How it was run: as §1

IL-17A transcripts = test: RT-PCR of IL-17A transcripts in human CD4 T cells during Th17 differentiation; type: cell-based; conditions: 0.5 μM compound
Protocol: Human CD4 T cells from 2 healthy donors were used in studies. […]
For compound treatment, CD4 T cells were pre-treated with compounds or DMSO vehicle control at 37°C for 1 hour before T cell activation.
For siRNA treatment, three RORγt siRNAs, two RORα siRNAs, two control siRNAs were tested at 1 μM, and mock transfected samples were included as controls (S1 Table). siRNA treatment was performed by Amaxa electroporation of human CD4 T cells with siRNAs. Human CD4 T cells were taken up in 100 μL Nucleofector solution (P3 primary cell 4D Nucleofector Kit, reference V4XP-3024, Amaxa Biosciences) at 5.0 × 10^6 cells/100 μL. Cell suspensions were transfected with siRNA by electroporation using the FI-115 program in the Amaxa 4D-Nucleofector. T cells after electroporation were rinsed with 500 μL culture medium, transferred to 24-well culture plates and kept at 37°C cell incubator before use in T cell assays. It was noticed that Amaxa electroporation caused an increased expression of some genes in human T cells and this elevated gene expression lasted up to 8 hours after electroporation. To avoid gene expression study interfered by electroporation, human CD4 T cells were rested in culture medium at 37°C for 8 hours after siRNA electroporation before the use of these cells to initiate Th17 differentiation for transcriptome profile.
T cells after compound or siRNA treatments were stimulated with anti-CD3/anti-CD28 coated beads (Miltenyi Biotech) at 2:1 bead to cell ratio in culture medium containing 10 ng/ml IL1β (R&D), 10 ng/ml IL23 (R&D), 30 ng/ml TGFβ1 (R&D), 10 μg/ml of anti-IL4 and anti-IFNγ (eBioscience). T cell cultures were collected at different time points for RNA extraction and gene expression studies.
Expression of RORα, RORγt and IL-17A genes in siRNA or compound treated human Th17 cells was measured by quantitative RT-PCR using the TaqMan RNA-to-Ct 1 step kit (Applied Biosystems) following the manufacturer’s instructions. […]
PCR results were analyzed with the ddCT algorithm to generate data on relative quantitation and changes in gene expression.

T4 sequence (P08908 whole entry): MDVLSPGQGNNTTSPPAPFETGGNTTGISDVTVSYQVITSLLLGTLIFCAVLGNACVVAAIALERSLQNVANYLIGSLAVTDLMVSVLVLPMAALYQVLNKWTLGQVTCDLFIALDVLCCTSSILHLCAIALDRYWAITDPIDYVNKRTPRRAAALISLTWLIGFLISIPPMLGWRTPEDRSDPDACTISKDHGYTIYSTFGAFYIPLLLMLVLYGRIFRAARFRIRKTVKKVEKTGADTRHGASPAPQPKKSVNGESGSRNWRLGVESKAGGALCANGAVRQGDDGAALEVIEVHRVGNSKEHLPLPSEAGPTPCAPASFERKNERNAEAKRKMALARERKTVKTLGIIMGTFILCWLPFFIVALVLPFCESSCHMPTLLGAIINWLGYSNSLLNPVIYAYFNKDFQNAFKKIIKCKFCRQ
T6 sequence (P25021 whole entry): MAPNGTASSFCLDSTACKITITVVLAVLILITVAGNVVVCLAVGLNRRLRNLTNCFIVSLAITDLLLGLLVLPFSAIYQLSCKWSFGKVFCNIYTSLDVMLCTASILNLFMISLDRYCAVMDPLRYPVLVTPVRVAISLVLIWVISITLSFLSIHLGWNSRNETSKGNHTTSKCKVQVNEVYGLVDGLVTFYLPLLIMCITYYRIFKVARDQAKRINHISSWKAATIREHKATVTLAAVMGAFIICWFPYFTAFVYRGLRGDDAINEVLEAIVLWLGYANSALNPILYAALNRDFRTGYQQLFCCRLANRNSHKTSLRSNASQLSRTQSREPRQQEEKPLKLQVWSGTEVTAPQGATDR
T1 sequence (O43603 whole entry): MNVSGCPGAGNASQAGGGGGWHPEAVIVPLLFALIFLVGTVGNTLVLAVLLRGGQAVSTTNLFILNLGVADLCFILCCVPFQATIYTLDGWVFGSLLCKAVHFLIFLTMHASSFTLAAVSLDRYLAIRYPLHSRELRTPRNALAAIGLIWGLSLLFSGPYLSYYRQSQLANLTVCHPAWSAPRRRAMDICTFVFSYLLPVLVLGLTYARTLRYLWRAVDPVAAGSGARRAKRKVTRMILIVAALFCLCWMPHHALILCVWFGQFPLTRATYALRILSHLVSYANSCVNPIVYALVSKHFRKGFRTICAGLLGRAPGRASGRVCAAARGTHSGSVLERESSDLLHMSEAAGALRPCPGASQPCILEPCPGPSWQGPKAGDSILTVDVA
T5 sequence (P32238 whole entry): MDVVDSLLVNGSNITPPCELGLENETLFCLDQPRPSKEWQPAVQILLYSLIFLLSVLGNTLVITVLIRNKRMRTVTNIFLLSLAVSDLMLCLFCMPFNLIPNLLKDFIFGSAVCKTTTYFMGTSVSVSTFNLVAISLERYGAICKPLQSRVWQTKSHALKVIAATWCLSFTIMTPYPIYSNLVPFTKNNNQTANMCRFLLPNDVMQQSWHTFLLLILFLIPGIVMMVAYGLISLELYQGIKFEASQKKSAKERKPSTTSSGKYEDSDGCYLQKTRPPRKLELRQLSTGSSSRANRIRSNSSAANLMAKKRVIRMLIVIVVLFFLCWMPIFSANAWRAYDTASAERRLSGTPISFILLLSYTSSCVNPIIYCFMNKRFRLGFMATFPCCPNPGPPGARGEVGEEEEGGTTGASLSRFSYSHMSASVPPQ
T2 sequence (P51449 269-508 limits assumed): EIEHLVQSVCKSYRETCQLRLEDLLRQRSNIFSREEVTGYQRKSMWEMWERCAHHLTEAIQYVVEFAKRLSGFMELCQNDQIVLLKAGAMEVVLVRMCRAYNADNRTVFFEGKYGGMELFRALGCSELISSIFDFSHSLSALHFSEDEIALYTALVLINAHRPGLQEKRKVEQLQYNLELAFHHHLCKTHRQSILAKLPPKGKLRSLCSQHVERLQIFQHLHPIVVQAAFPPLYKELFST
T3 sequence (P51449 258-518): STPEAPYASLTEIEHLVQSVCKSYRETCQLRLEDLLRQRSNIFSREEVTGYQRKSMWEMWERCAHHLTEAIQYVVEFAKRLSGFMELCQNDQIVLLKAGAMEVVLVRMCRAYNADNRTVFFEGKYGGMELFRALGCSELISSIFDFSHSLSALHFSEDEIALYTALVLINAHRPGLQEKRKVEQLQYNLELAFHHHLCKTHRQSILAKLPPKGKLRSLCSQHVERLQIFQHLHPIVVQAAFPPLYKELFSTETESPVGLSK

With `COc1nc2ccc([C@](O)(c3ccc(Cl)cc3)c3cncn3C)cc2c(Cl)c1Cc1ccc(-n2cccn2)cc1` [B] the inhibition at 10 µM (GAL2 (h)) was 1%.

Work on `COc1nc2ccc([C@@](O)(c3ccccc3)C3CCN(C(C)=O)CC3)cc2c(Cl)c1Cc1ccc(-n2cccn2)cc1` [C] yielded an IC50 (human RORγt LBD) of 0.0289 µM and a Kd (RORγ/γt LBD) of 4.4 nM.

For `COc1nc2ccc([C@@](O)(c3ccc(C)nc3C)c3cnnn3C)cc2c(Cl)c1Cc1ccc(C(F)(F)F)cc1` [compound A], the “% Inhibition at 1µM” value (Aa1; 1 µM) was 8%, the “% Inhibition at 10µM” value (Aa1; 10 µM) was 5% and the inhibition at 1 µM (5HT1A (h); 1 µM) was 14%. The inhibition at 10 µM (5HT1A (h); 10 µM) was 19% and the “% Inhibition at 10µM” value (Aa2) was 7%.

For `CN(C)c1nc2ccc(C(O)(c3ccncc3)c3cncn3C)cc2c(Cl)c1-c1ccccc1` (centres unmarked) [compound D], the “effect on RORγt expression in T cells” value (RORγt transcripts) was “did not affect”, the inhibition at 1 µM (CCKA (h)) was 11% and the inhibition at 10 µM (H2 (h)) was 5%. For the same compound, the “reduction of IL-17A transcripts” value (IL-17A transcripts; 24 hours) was 79%, the “reduction of IL-17A transcripts” value (IL-17A transcripts; 72 hours) was 73% and the “decrease of IL-17A transcripts” value (IL-17A transcripts; day 6) was 67%.
